Legend:
patients with PH [1] = assay: Clinical Study 2 in patients with PH, 12 weeks, placebo controlled; assay type: in vivo, human
patients with PH [2] = assay: Expanded clinical study in 213 PH patients, WHO functional class III or IV, 16 weeks; assay type: in vivo, human
Procedure: On the basis of the results of the above study 2, the clinical study is expanded with additional 213 PH patients for at least 16 weeks. The study is conducted with patients with PH, WHO functional class III or IV. Two hundred thirteen patients are randomized to receive either 400 mg bid or 800 mg bid of 3-(3,4-dimethoxy-phenyl)-3-(1-oxo-1,3-dihydro-isoindol-2-yl)-propionamide or placebo in a 1:1:1 ratio. The primary endpoint, a 6-minute walk distance, is evaluated at 16 weeks. The treated patients walk 36.4 meters further at 16 weeks compared to a 7.8 meter reduction in walk distance in the placebo group, for a treatment effect of 44.2 meters. Clinical worsening, defined by death, premature withdrawal from study, hospitalization for worsening of PH or institution of epoprostenol, occur in 37% of placebo-treated patients, compared with 11% of the patients treated with the compound of the invention.

TNF-α production = assay: In vitro inhibition of cytokine (TNF-α) production following LPS-stimulation of human PBMC and human whole blood; assay type: cell-based; conditions: in vitro studies; more potent than thalidomide
From the text: In a specific embodiment, the pharmacological properties of 3-(3,4-dimethoxy-phenyl)-3-(1-oxo-1,3-dihydro-isoindol-2-yl)-propionamide are characterized in in vitro studies. Studies examine the effects of the compound on the production of various cytokines. Inhibition of TNF-α production following LPS-stimulation of human PBMC and human whole blood by the compound is investigated in vitro. […] The pharmacological effects of 3-(3,4-dimethoxy-phenyl)-3-(1-oxo-1,3-dihydro-isoindol-2-yl)-propionamide may derive from its action as an inhibitor of the generation of inflammatory cytokines.

[3] = 12 weeks, compared with placebo patients
[4] = after 12 weeks of treatment, compared with placebo

COc1ccc(C(CC(N)=O)N2Cc3ccccc3C2=O)cc1OC (centres unmarked) [3-(3,4-Dimethoxy-phenyl)-3-(1-oxo-1,3-dihydro-isoindol-2-yl)-propionamide]
dyspnea score (patients with PH [1]; [3]): improvements | functional class (patients with PH [1]; [3]): improvements | cardiac output (patients with PH [1]; [4]): increase | pulmonary arterial pressure (patients with PH [1]; [4]): decreases | pulmonary vascular resistance (patients with PH [1]; [4]): decreases | 6-minute walk distance, average walked farther (patients with PH [1]; after 12 weeks, 400 mg for four weeks followed by 800 mg for eight weeks, NYHA functional class III): 70 meters | 6-minute walk distance, walked further (patients with PH [2]; at 16 weeks, 400 mg bid or 800 mg bid): 36.4 meters | 6-minute walk distance, treatment effect versus placebo (patients with PH [2]; at 16 weeks, 400 mg bid or 800 mg bid, placebo 7.8 meter reduction): 44.2 meters | clinical worsening (death, premature withdrawal, hospitalization for worsening of PH or institution of epoprostenol), share of patients (patients with PH [2]; at least 16 weeks, placebo 37%): 11% | functional class (patients with PH [2]; treated versus placebo patients): improved significantly more | pharmacological activity profile, potency relative to thalidomide (TNF-α production): five to fifty

Reference: patent publication US20050239867A1, “Methods of using and compositions comprising PDE4 modulators for the treatment and management of pulmonary hypertension” (priority 2004, published 2005)
